Measurements taken from patent publication US20210045385A1, “PYRIDAZINONE-SUBSTITUTED KETOXIMES AS HERBICIDES” (FMC Corporation, priority 2018, published 2021).

Legend:
Assay type in all cases: in vivo
[1] = tested on: barnyardgrass (Echinochloa crus-galli); test: Test C preemergence, visual plant response rating; conditions: Test C, 0 is no effect, 100 is complete control
Procedure, shortened: (§1)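 Visual injury on a 0 (no effect) to 100 (complete control) scale versus untreated controls, scored approximately 10 d after treatment under greenhouse conditions. Treatments used surfactant-containing non-phytotoxic solvent formulations, sprayed onto loam–sand soil preemergence or onto one- to two-leaf plants 2–10 cm tall postemergence.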

[2] = tested on: foxtail, giant (giant foxtail, Setaria faberi); test: Test C preemergence, visual plant response rating; conditions: Test C, 0 is no effect, 100 is complete control
Procedure, shortened: as §1

[3] = tested on: Italian ryegrass (Lolium mutiflorum); test: Test C preemergence, visual plant response rating; conditions: Test C, 0 is no effect, 100 is complete control
Procedure, shortened: as §1

[4] = tested on: pigweed (Amaranthus retroflexus); test: Test C preemergence, visual plant response rating; conditions: Test C, 0 is no effect, 100 is complete control
Procedure, shortened: as §1

[5] = tested on: ragweed (common ragweed, Ambrosia artemisiifolia); test: Test C preemergence, visual plant response rating; conditions: Test C, 0 is no effect, 100 is complete control
Procedure, shortened: as §1

kochia (Bassia scoparia) [6] = test: Test C preemergence, visual plant response rating; conditions: Test C, 0 is no effect, 100 is complete control
Procedure, shortened: as §1

[7] = tested on: barnyardgrass (Echinochloa crus-galli); test: Test C postemergence, visual plant response rating
Procedure, shortened: as §1

[8] = tested on: blackgrass (Alopecurus myosuroides); test: Test C postemergence, visual plant response rating
Procedure, shortened: as §1

[9] = tested on: foxtail, giant (giant foxtail, Setaria faberi); test: Test C postemergence, visual plant response rating
Procedure, shortened: as §1

[10] = tested on: wheat (Triticum aestivum); test: Test C postemergence, visual plant response rating
Procedure, shortened: as §1

corn (Zea mays) = test: Test C postemergence, visual plant response rating
Procedure, shortened: as §1

[11] = tested on: Italian ryegrass (Lolium mutiflorum); test: Test C postemergence, visual plant response rating
Procedure, shortened: as §1

[12] = tested on: pigweed (Amaranthus retroflexus); test: Test C postemergence, visual plant response rating
Procedure, shortened: as §1

[13] = tested on: galium (catchweed bedstraw, Galium aparine); test: Test C postemergence, visual plant response rating
Procedure, shortened: as §1

[14] = tested on: ragweed (common ragweed, Ambrosia artemisiifolia); test: Test C postemergence, visual plant response rating
Procedure, shortened: as §1

kochia (Bassia scoparia) [15] = test: Test C postemergence, visual plant response rating
Procedure, shortened: as §1

[16] = tested on: duck salad (Heteranthera limosa); test: Test D flooded paddy test, visual plant response rating; conditions: 250 g ai/ha, scale 0 to 100 (0 no effect, 100 complete control), 13 to 15 d
Procedure, shortened: (§2)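 Visual injury scores, 0 (no effect) to 100 (complete control), were assigned after 13 to 15 d in the greenhouse by comparison with controls. Test compounds had been added to paddy water covering soil by 3 cm at the 2-leaf stage.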

rice (Oryza sativa) = test: as above; conditions: 250 g ai/ha, scale 0 to 100 (0 no effect, 100 complete control), 13 to 15 d
Procedure, shortened: as §2

[17] = tested on: barnyardgrass (Echinochloa crus-galli); test: as above; conditions: 250 g ai/ha, scale 0 to 100 (0 no effect, 100 complete control), 13 to 15 d
Procedure, shortened: as §2

[18] = tested on: sedge umbrella (small-flower umbrella sedge, Cyperus difformis); test: as above; conditions: 250 g ai/ha, scale 0 to 100 (0 no effect, 100 complete control), 13 to 15 d
Procedure, shortened: as §2

[19] = Test C, postemergence, 125 g ai/ha

Compound	Barnyardgrass plant response rating (0 to 100 scale) ([1]; 31 g ai/ha)	Barnyardgrass plant response rating (0 to 100 scale) ([1]; 125 g ai/ha)	Foxtail, Giant plant response rating (0 to 100 scale) ([2]; 31 g ai/ha)	Foxtail, Giant plant response rating (0 to 100 scale) ([2]; 125 g ai/ha)	Ryegrass, Italian plant response rating (0 to 100 scale) ([3]; 31 g ai/ha)	Ryegrass, Italian plant response rating (0 to 100 scale) ([3]; 125 g ai/ha)	Pigweed plant response rating (0 to 100 scale) ([4]; 31 g ai/ha)	Pigweed plant response rating (0 to 100 scale) ([4]; 125 g ai/ha)	Ragweed plant response rating (0 to 100 scale) ([5]; 31 g ai/ha)	Ragweed plant response rating (0 to 100 scale) ([5]; 125 g ai/ha)	Kochia plant response rating (0 to 100 scale) (kochia (Bassia scoparia) [6]; 31 g ai/ha)	Kochia plant response rating (0 to 100 scale) (kochia (Bassia scoparia) [6]; 125 g ai/ha)	Barnyardgrass plant response rating (0 to 100 scale) ([7]; Postemergence, 31 g ai/ha)	Barnyardgrass plant response rating (0 to 100 scale) [7, 19]	Blackgrass plant response rating (0 to 100 scale) ([8]; Postemergence, 31 g ai/ha)	Blackgrass plant response rating (0 to 100 scale) [8, 19]	Foxtail, Giant plant response rating (0 to 100 scale) ([9]; Postemergence, 31 g ai/ha)	Foxtail, Giant plant response rating (0 to 100 scale) [9, 19]	Wheat plant response rating (0 to 100 scale) ([10]; Postemergence, 31 g ai/ha)	Wheat plant response rating (0 to 100 scale) [10, 19]	further results
CCO/N=C(\c1c(O)cnn(C)c1=O)c1ccc(F)c2ccccc12 [Compound 269]	0	0	0	30	0	10	0	10	0	0	0	0	0	0	0	30	10	40	0	0	Corn plant response rating (0 to 100 scale) (corn (Zea mays); Postemergence, 31 g ai/ha): 0; Corn plant response rating (0 to 100 scale) (corn (Zea mays); [19]): 20; Ryegrass, Italian plant response rating (0 to 100 scale) ([11]; Postemergence, 31 g ai/ha): 0; Ryegrass, Italian plant response rating (0 to 100 scale) [11, 19]: 60; Pigweed plant response rating (0 to 100 scale) ([12]; Postemergence, 31 g ai/ha): 50; Pigweed plant response rating (0 to 100 scale) [12, 19]: 60; Galium plant response rating (0 to 100 scale) ([13]; Postemergence, 31 g ai/ha): 50; Galium plant response rating (0 to 100 scale) [13, 19]: 80; Ragweed plant response rating (0 to 100 scale) ([14]; Postemergence, 31 g ai/ha): 10; Ragweed plant response rating (0 to 100 scale) [14, 19]: 40; Kochia plant response rating (0 to 100 scale) (kochia (Bassia scoparia) [15]; Postemergence, 31 g ai/ha): 0; Kochia plant response rating (0 to 100 scale) (kochia (Bassia scoparia) [15]; [19]): 30; Plant response rating, Ducksalad (Flood) [16]: 0; Plant response rating, Rice (Flood) (rice (Oryza sativa)): 0; Plant response rating, Barnyardgrass (Flood) [17]: 0; Plant response rating, Sedge, Umbrella (Flood) [18]: 0
CCO/N=C(/c1c(O)cnn(C)c1=O)c1ccc(F)c2ccccc12 [Compound 270]	0	0	0	20	0	10	0	0	0	10	0	0	0	0	0	30	0	10	0	0	Corn plant response rating (0 to 100 scale) (corn (Zea mays); Postemergence, 31 g ai/ha): 0; Corn plant response rating (0 to 100 scale) (corn (Zea mays); [19]): 0; Ryegrass, Italian plant response rating (0 to 100 scale) ([11]; Postemergence, 31 g ai/ha): 0; Ryegrass, Italian plant response rating (0 to 100 scale) [11, 19]: 10; Pigweed plant response rating (0 to 100 scale) ([12]; Postemergence, 31 g ai/ha): 80; Pigweed plant response rating (0 to 100 scale) [12, 19]: 50; Galium plant response rating (0 to 100 scale) ([13]; Postemergence, 31 g ai/ha): 50; Galium plant response rating (0 to 100 scale) [13, 19]: 80; Ragweed plant response rating (0 to 100 scale) ([14]; Postemergence, 31 g ai/ha): 20; Ragweed plant response rating (0 to 100 scale) [14, 19]: 70; Kochia plant response rating (0 to 100 scale) (kochia (Bassia scoparia) [15]; Postemergence, 31 g ai/ha): 20; Kochia plant response rating (0 to 100 scale) (kochia (Bassia scoparia) [15]; [19]): 30; Plant response rating, Ducksalad (Flood) [16]: 0; Plant response rating, Rice (Flood) (rice (Oryza sativa)): 0; Plant response rating, Barnyardgrass (Flood) [17]: 0; Plant response rating, Sedge, Umbrella (Flood) [18]: 0
CON=C(c1cc(Cl)cc(F)c1Cl)c1c(O)c(C)nn(C)c1=O [Compound 271]	30	50	40	80	80	100	100	100	30	80	20	100	40	80	20	40	70	80	30	70	Corn plant response rating (0 to 100 scale) (corn (Zea mays); Postemergence, 31 g ai/ha): 10; Corn plant response rating (0 to 100 scale) (corn (Zea mays); [19]): 30; Ryegrass, Italian plant response rating (0 to 100 scale) ([11]; Postemergence, 31 g ai/ha): 80; Ryegrass, Italian plant response rating (0 to 100 scale) [11, 19]: 100; Pigweed plant response rating (0 to 100 scale) ([12]; Postemergence, 31 g ai/ha): 80; Pigweed plant response rating (0 to 100 scale) [12, 19]: 90; Galium plant response rating (0 to 100 scale) ([13]; Postemergence, 31 g ai/ha): 100; Galium plant response rating (0 to 100 scale) [13, 19]: 100; Ragweed plant response rating (0 to 100 scale) ([14]; Postemergence, 31 g ai/ha): 70; Ragweed plant response rating (0 to 100 scale) [14, 19]: 90; Kochia plant response rating (0 to 100 scale) (kochia (Bassia scoparia) [15]; Postemergence, 31 g ai/ha): 60; Kochia plant response rating (0 to 100 scale) (kochia (Bassia scoparia) [15]; [19]): 80; Plant response rating, Ducksalad (Flood) [16]: 0; Plant response rating, Rice (Flood) (rice (Oryza sativa)): 0; Plant response rating, Barnyardgrass (Flood) [17]: 0; Plant response rating, Sedge, Umbrella (Flood) [18]: 0
CON=C(c1cc(Cl)cc(F)c1Cl)c1c(O)c(C)nn(C)c1=O [Compound 272]	30	50	80	80	90	100	70	100	20	40	10	90	40	60	30	80	60	90	30	60	Corn plant response rating (0 to 100 scale) (corn (Zea mays); Postemergence, 31 g ai/ha): 10; Corn plant response rating (0 to 100 scale) (corn (Zea mays); [19]): 20; Ryegrass, Italian plant response rating (0 to 100 scale) ([11]; Postemergence, 31 g ai/ha): 90; Ryegrass, Italian plant response rating (0 to 100 scale) [11, 19]: 100; Pigweed plant response rating (0 to 100 scale) ([12]; Postemergence, 31 g ai/ha): 70; Pigweed plant response rating (0 to 100 scale) [12, 19]: 90; Galium plant response rating (0 to 100 scale) ([13]; Postemergence, 31 g ai/ha): 90; Galium plant response rating (0 to 100 scale) [13, 19]: 100; Ragweed plant response rating (0 to 100 scale) ([14]; Postemergence, 31 g ai/ha): 60; Ragweed plant response rating (0 to 100 scale) [14, 19]: 80; Kochia plant response rating (0 to 100 scale) (kochia (Bassia scoparia) [15]; Postemergence, 31 g ai/ha): 70; Kochia plant response rating (0 to 100 scale) (kochia (Bassia scoparia) [15]; [19]): 80; Plant response rating, Ducksalad (Flood) [16]: 60; Plant response rating, Rice (Flood) (rice (Oryza sativa)): 15; Plant response rating, Barnyardgrass (Flood) [17]: 25; Plant response rating, Sedge, Umbrella (Flood) [18]: 65
